The values that follow come from PMC11480361, “Design of a Cereblon construct for crystallographic and biophysical studies of protein degraders” (Nature Communications, 2024).

The target of experiment [1] is T1, CRBN^midi (Homo sapiens, UniProt Q96SW2, C287N/C343E/C78I/DEL188-248/G302D/I92V/INS187GSG/K116N/L342R/L423I/Q134E/R283W/T359I/V293S).
T1 construct: amino acids 41-187 followed by a Gly-Ser-Gly linker and amino acids 249-426; His6 (N, cleaved yes); made in house; host or cells: E. coli BL21(DE3)
Kind of experiment: SEC-SAXS of CRBN^midi with binders (radius of gyration). As to Rg, Guinier analysis: values in Å. As to Rg, P(r) Analysis from AUTOGNOM: values in Å. As to dmax, P(r) analysis: values in Å. The following applies: for RG of ligand-bound CRBN^midi: 200 µM ligand, apo 26.73 Å; for Rg, P(r) Analysis from AUTOGNOM / dmax, P(r) analysis / Rg, Guinier analysis: Supplementary Table 3; for Rg, P(r) Analysis from AUTOGNOM: apo 26.91 ± 0.04; for dmax, P(r) analysis: apo 172.46; for Rg, Guinier analysis: binder 400 µM (mezigdomide, lenalidomide) or 200 µM (Boc-VcN, Boc-AcQ), apo 26.73 ± 0.06. As for the experimental part: Frames from SEC-SAXS that corresponded to the main protein peak, were merged using Chromixs[61] and analyzed using the ATSAS (version 3.2.1) package. Radii of gyration and molecular mass were extrapolated from the Guinier plot using Primus. Pairwise-distance distributions were calculated using GNOM[63]. The dimensionless Kratky plot[49] was obtained by manually plotting (qRg)^2I(q)/I0 against qRg.
The open conformation model was obtained by homology modelling using the SWISS-MODEL webserver (accessed April 18th 2023)[65] with the cryo-EM structure of apo-CRBN (PDB ID: 8CVP)[25] as the input structure.
(In general: Size exclusion chromatography separates by hydrodynamic size, large species first.)

Experiment [2] concerns the target T1, CRBN^midi. Kind of experiment: Thermal denaturation (turbidity, Prometheus Panta) of CRBN^midi +/- binders, Fig. 2f. Format: binding. The following applies: for increase of Tm / denaturation temperature of CRBN^midi / melting temperature (Tm) of CRBN^midi in presence of binder: 100 µM binder; for increase of Tm / denaturation temperature of CRBN^midi: versus apo; for melting temperature (Tm) of CRBN^midi in presence of binder: apo Tm 44.5 °C; for First derivative: thermal denaturation trace. Also noted: First derivative: unit not given here. The procedure:
Protein aggregation was assessed, and turbidity values were calculated by the PR.Panta control software (NanoTemper Technologies). First derivative curves were plotted using Prism software (GraphPad version 10).

Where [3] appears, read: T[°C] 86.7721 lenalidomide, 86.7698 Boc-VcN, 86.7691 Boc-AcQ.
The mark [4] stands for this setting: T[°C] 86.8918 lenalidomide, 86.8895 Boc-VcN, 86.8888 Boc-AcQ.
The mark [5] stands for this setting: T[°C] 87.0114 lenalidomide, 87.0091 Boc-VcN, 87.0084 Boc-AcQ.
Where [6] appears, read: T[°C] 87.1311 lenalidomide, 87.1288 Boc-VcN, 87.1281 Boc-AcQ.
Where [7] appears, read: T[°C] 87.2507 lenalidomide, 87.2484 Boc-VcN, 87.2477 Boc-AcQ.
Where [8] appears, read: T[°C] 87.3704 lenalidomide, 87.3681 Boc-VcN, 87.3674 Boc-AcQ.
The mark [9] stands for this setting: T[°C] 87.49 lenalidomide, 87.4877 Boc-VcN, 87.487 Boc-AcQ.
The mark [10] stands for this setting: T[°C] 87.6097 lenalidomide, 87.6074 Boc-VcN, 87.6067 Boc-AcQ.
Setting [11] is: T[°C] 87.7294 lenalidomide, 87.727 Boc-VcN, 87.7263 Boc-AcQ.
[12] abbreviates: T[°C] 87.849 lenalidomide, 87.8467 Boc-VcN, 87.846 Boc-AcQ.
The mark [13] stands for this setting: T[°C] 87.9687 lenalidomide, 87.9664 Boc-VcN, 87.9656 Boc-AcQ.
[14] abbreviates: T[°C] 88.0883 lenalidomide, 88.086 Boc-VcN, 88.0853 Boc-AcQ.
Setting [15] is: T[°C] 88.208 lenalidomide, 88.2057 Boc-VcN, 88.205 Boc-AcQ.
Where [16] appears, read: T[°C] 88.3276 lenalidomide, 88.3253 Boc-VcN, 88.3246 Boc-AcQ.
Where [17] appears, read: T[°C] 88.4473 lenalidomide, 88.445 Boc-VcN, 88.4443 Boc-AcQ.
[18] abbreviates: T[°C] 88.567 lenalidomide, 88.5646 Boc-VcN, 88.5639 Boc-AcQ.
Setting [19] is: T[°C] 88.6866 lenalidomide, 88.6843 Boc-VcN, 88.6836 Boc-AcQ.
Where [20] appears, read: T[°C] 88.8063 lenalidomide, 88.8039 Boc-VcN, 88.8032 Boc-AcQ.
Setting [21] is: T[°C] 88.9259 lenalidomide, 88.9236 Boc-VcN, 88.9229 Boc-AcQ.
Where [22] appears, read: T[°C] 89.0456 lenalidomide, 89.0432 Boc-VcN, 89.0425 Boc-AcQ.
Where [23] appears, read: T[°C] 89.1653 lenalidomide, 89.1629 Boc-VcN, 89.1622 Boc-AcQ.
Setting [24] is: T[°C] 89.2849 lenalidomide, 89.2825 Boc-VcN, 89.2818 Boc-AcQ.
[25] abbreviates: T[°C] 89.4046 lenalidomide, 89.4022 Boc-VcN, 89.4015 Boc-AcQ.
Where [26] appears, read: T[°C] 89.5242 lenalidomide, 89.5218 Boc-VcN, 89.5211 Boc-AcQ.
The mark [27] stands for this setting: T[°C] 89.6439 lenalidomide, 89.6415 Boc-VcN, 89.6408 Boc-AcQ.
[28] abbreviates: T[°C] 89.7635 lenalidomide, 89.7612 Boc-VcN, 89.7604 Boc-AcQ.
The mark [29] stands for this setting: T[°C] 89.8832 lenalidomide, 89.8808 Boc-VcN, 89.8801 Boc-AcQ.
Setting [30] is: T[°C] 90.0028 lenalidomide, 90.0005 Boc-VcN, 89.9997 Boc-AcQ.

“And” between values parts separate entries of the source, which are not always exact repeats. Identical values can stand only once.

T1 sequence (Q96SW2 with tags, fused parts or gaps with the stated changes limits assumed): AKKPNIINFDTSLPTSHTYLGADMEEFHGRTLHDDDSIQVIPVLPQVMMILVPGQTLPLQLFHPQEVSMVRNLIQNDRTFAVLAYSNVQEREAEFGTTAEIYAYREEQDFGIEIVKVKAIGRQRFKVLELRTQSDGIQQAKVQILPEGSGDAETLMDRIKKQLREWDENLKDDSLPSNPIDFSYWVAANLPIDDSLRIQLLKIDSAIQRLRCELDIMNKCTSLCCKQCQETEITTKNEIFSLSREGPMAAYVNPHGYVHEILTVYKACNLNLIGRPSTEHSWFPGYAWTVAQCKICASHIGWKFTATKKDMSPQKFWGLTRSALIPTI

`C[C@H](NC(=O)OC(C)(C)C)C(=O)N[C@H]1CCC(=O)NC1=O` [Boc-AcQ, tert-butyl ((S)-1-(((S)-2,6-dioxopiperidin-3-yl)amino)-1-oxopropan-2-yl)carbamate]: the “RG of ligand-bound CRBN^midi” value in experiment [1] is 24.29 Å and 24.3 Å. Further, in experiment [1], the “Rg, P(r) Analysis from AUTOGNOM” value turned out to be 24.25 ± 0.04 Å. The “dmax, P(r) analysis” value in experiment [1] came to 146.92 Å. In experiment [1], the “Rg, Guinier analysis” value is listed as 24.29 ± 0.05 Å. The “increase of Tm / denaturation temperature of CRBN^midi” value in experiment [2] was 8.3 °C. In addition, in experiment [2], the “melting temperature (Tm) of CRBN^midi in presence of binder” value was 52.8 °C. For the same compound, the First derivative is recorded as -0.02853 in experiment [2] (setting [3]); -0.0315 in experiment [2] (setting [4]); -0.03497 in experiment [2] (setting [5]); -0.03881 in experiment [2] (setting [6]); -0.04291 in experiment [2] (setting [7]); -0.04716 in experiment [2] (setting [8]). For the same compound, the First derivative in experiment [2] (setting [9]) is on record as -0.05142; in experiment [2] (setting [10]), -0.05268; in experiment [2] (setting [11]), -0.05356; in experiment [2] (setting [12]) it was -0.05436; in experiment [2] (setting [13]), -0.05515; in experiment [2] (setting [14]), -0.0559. Besides, the First derivative was -0.05659 in experiment [2] (setting [15]); -0.05718 in experiment [2] (setting [16]); -0.05764 in experiment [2] (setting [17]); -0.05798 in experiment [2] (setting [18]); -0.05817 in experiment [2] (setting [19]); -0.05821 in experiment [2] (setting [20]). Also, the First derivative in experiment [2] (setting [21]) is reported as -0.0581; in experiment [2] (setting [22]) it was -0.05783; in experiment [2] (setting [23]), -0.05741; in experiment [2] (setting [24]), -0.05684; in experiment [2] (setting [25]) it was -0.05611; in experiment [2] (setting [26]), -0.05525. Also, the First derivative in experiment [2] (setting [27]) was -0.05424; in experiment [2] (setting [28]), -0.05311; in experiment [2] (setting [29]) it was -0.05186; in experiment [2] (setting [30]) it was -0.0505.

For `N#Cc1ccc(N2CCN(Cc3ccc(COc4cccc5c4CN([C@H]4CCC(=O)NC4=O)C5=O)cc3)CC2)c(F)c1` [mezigdomide, Mezigdomide], in experiment [1], the “Rg, P(r) Analysis from AUTOGNOM” value is 22.45 ± 0.04 Å; the “dmax, P(r) analysis” value was found to be 145.02 Å; the “Rg, Guinier analysis” value turned out to be 22.79 ± 0.06 Å.

For `CC(C)[C@H](NC(=O)OC(C)(C)C)C(=O)NC1CC(=O)NC1=O` (stereo partly drawn) [Boc-VcN, Tert-butyl ((2S)-1-((2,5-dioxopyrrolidin-3-yl)amino)-3-methyl-1-oxobutan-2-yl)carbamate], the “RG of ligand-bound CRBN^midi” value in experiment [1] was 23.41 Å and 23.4 Å. Further, in experiment [1], the “Rg, P(r) Analysis from AUTOGNOM” value is listed as 22.93 ± 0.03 Å. Further, the “dmax, P(r) analysis” value in experiment [1] is 137.14 Å. The “Rg, Guinier analysis” value in experiment [1] was 23.41 ± 0.05 Å. The “increase of Tm / denaturation temperature of CRBN^midi” value in experiment [2] was found to be 11.1 °C. For the same compound, the “melting temperature (Tm) of CRBN^midi in presence of binder” value in experiment [2] was determined as 55.6 °C. The First derivative is given as -0.05947 in experiment [2] (setting [3]); -0.05823 in experiment [2] (setting [4]); -0.05736 in experiment [2] (setting [5]); -0.05707 in experiment [2] (setting [6]); -0.05755 in experiment [2] (setting [7]); -0.05896 in experiment [2] (setting [8]). Moreover, the First derivative in experiment [2] (setting [9]) is reported as -0.06138; in experiment [2] (setting [10]) it was -0.06805; in experiment [2] (setting [11]) it was -0.07618; in experiment [2] (setting [12]) it was -0.08482; in experiment [2] (setting [13]) it was -0.09355; in experiment [2] (setting [14]), -0.1023. The First derivative is recorded as -0.1109 in experiment [2] (setting [15]); -0.1196 in experiment [2] (setting [16]); -0.1282 in experiment [2] (setting [17]); -0.1368 in experiment [2] (setting [18]); -0.1455 in experiment [2] (setting [19]); -0.1543 in experiment [2] (setting [20]). Also, the First derivative in experiment [2] (setting [21]) was -0.1632; in experiment [2] (setting [22]) it was -0.1723; in experiment [2] (setting [23]) it was -0.1815; in experiment [2] (setting [24]) it was -0.191; in experiment [2] (setting [25]), -0.2007; in experiment [2] (setting [26]), -0.2106. For the same compound, the First derivative in experiment [2] (setting [27]) is -0.2208; in experiment [2] (setting [28]), -0.2313; in experiment [2] (setting [29]), -0.2421; in experiment [2] (setting [30]), -0.2531.
